Results as given in patent US20080207614A1, “QUINAZOLINE DERIVATIVES FOR THE TREATMENT AND PREVENTION OF DIABETES AND OBESITY” (SK CHEMICALS CO., LTD., priority 2004, published 2008).

Columns and labels:
AMPK = assay: Measurement of AMPK activity by Western blot in C2C12 cells; type: cell-based; set-up: key to AMPK activity (degree of phosphorylation of serine-79 and threonine-172): fold increase in threonine-172 phosphorylation; AMPK activity (degree of phosphorylation of serine-79): unit not given here; conditions: 10 μM for 50 minutes; for AMPK activity (class: degree of phosphorylation of threonine-172): strong/mild/weak; for AMPK activity (degree of phosphorylation of serine-79 and threonine-172): no superscript: Western blot of serine-79 and threonine-172 phosphorylation; for AMPK activity (degree of phosphorylation of serine-79): footnote a: Western blot of serine-79 phosphorylation
How it was run: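 Differentiated C2C12 cells were exposed to test material at 10 μM for 50 minutes, then lysed. AMPK activity was taken from Western blots of Thr-172 phosphorylation and acetyl CoA carboxylase Ser-79 phosphorylation, with ERK as loading reference. Thr-172 rise was graded strong (≥3-fold), mild (1-3-fold) or weak (<1-fold).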

C2C12 muscle cells = assay: Analysis of glucose absorption (2-deoxyglucose) in differentiated C2C12 muscle cells; type: cell-based; conditions: test materials 10 μM, times relative to control group
How it was run: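 Differentiated C2C12 myotubes (6 days in 1% serum) held 3 h in KRB with 5 mM glucose, then given test material at 10 μM. After 30 min, 0.2 μCi 2-deoxyglucose added for 20 min; uptake measured by radioactive counting of NaOH lysates.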

Row | Structure (SMILES) | AMPK activity (class: degree of phosphorylation of threonine-172) (AMPK) | Glucose absorption (C2C12 muscle cells) | AMPK activity (degree of phosphorylation of serine-79 and threonine-172) (AMPK) | AMPK activity (degree of phosphorylation of serine-79) (AMPK)
1 | CCSc1nc(NCc2ccc(OC)cc2)c2ccccc2n1 [Compound 25, (2-Ethylsulfanylquinazolino-4-yl)-(4-methoxybenzyl)-amine] | strong (“strong” means that the degree of phosphorylation of threonine-172 increased by 3 times or more) | 2.6 | – | –
2 | Clc1ccccc1CNc1nc(-c2ccccc2)nc2ccccc12 [Compound 109, (2-Chlorobenzyl)-(2-phenylquinazolino-4-yl)-amine] | strong (“strong” means that the degree of phosphorylation of threonine-172 increased by 3 times or more) | 1.3 | 1.9 | –
3 | c1ccc(CCNc2nc(C3CCCCC3)nc3ccccc23)cc1 [Compound 203, (2-Cyclohexylquinazolino-4-yl)-phenethylamine] | strong (“strong” means that the degree of phosphorylation of threonine-172 increased by 3 times or more) | 2.0 | 3.9 | –
4 | Clc1cccc(CCNc2nc(-c3ccccc3)nc3ccccc23)c1 [Compound 126, [2-(3-Chlorophenyl)-ethyl]-(2-phenylquinazolino-4-yl)-amine] | strong (“strong” means that the degree of phosphorylation of threonine-172 increased by 3 times or more) | 2.1 | 2.0 | –
5 | CC(C)(C)c1nc(NCCc2cccc(F)c2)c2ccccc2n1 [Compound 196, (2-tert-Butylquinazolino-4-yl)-[2-(3-fluorophenyl)-ethyl]-amine] | strong (“strong” means that the degree of phosphorylation of threonine-172 increased by 3 times or more) | 2.1 | 4.8 | –
6 | COc1ccc(CNc2nc(N3CCOCC3)nc3ccccc23)c(OC)c1 [Compound 293, (2,4-Dimethoxybenzyl)-(2-morpholino-4-ylquinazolino-4-yl)-amine] | – | 0.6 | 0.1 | –
7 | COc1ccc(OC)c(CNc2nc(-c3ccccc3)nc3ccccc23)c1 [Compound 147, (2,5-Dimethoxybenzyl)-(2-phenylquinazolino-4-yl)-amine] | strong (“strong” means that the degree of phosphorylation of threonine-172 increased by 3 times or more) | 1.3 | 1.8 | –
8 | COc1cc(CNc2nc(C3CC3)nc3ccccc23)cc(OC)c1OC [Compound 389, (2-Cyclopropylquinazolino-4-yl)-(3,4,5-trimethoxybenzyl)-amine] | – | 1.3 | 2.2 | –
9 | CCSc1nc(NCc2cccc(F)c2)c2ccccc2n1 [Compound 9, (2-Ethylsulfanylquinazolino-4-yl)-(3-fluorobenzyl)-amine] | – | 2.0 | – | 5.5^a
10 | COc1ccc(CNc2nc(C3CC3)nc3ccccc23)cc1 [Compound 384, (2-Cyclopropylquinazolino-4-yl)-(4-methoxybenzyl)-amine] | – | 1.2 | 2.0 | –
11 | COc1ccccc1CNc1nc(C(C)c2ccccc2)nc2ccccc12 (centres unmarked) [Compound 371, (2-Methoxybenzyl)-[2-(1-phenylethyl)-quinazolino-4-yl]-amine] | – | 1.2 | 2.8 | –
12 | COc1ccc(OC)c(CNc2nc(C(OC)c3ccccc3)nc3ccccc23)c1 (centres unmarked) [Compound 369, (2,5-Dimethoxybenzyl)-[2-(methoxyphenylmethyl)-quinazolino-4-yl]-amine] | – | 1.1 | 4.5 | –
13 | COc1cc(CNc2nc(C(C)c3ccccc3)nc3ccccc23)cc(OC)c1 (centres unmarked) [Compound 376, (3,5-Dimethoxybenzyl)-[2-(1-phenylethyl)-quinazolino-4-yl]-amine] | – | 1.1 | 1.1 | –
14 | CCC(CC)Nc1nc(-c2ccccc2)nc2ccccc12 [Compound 121, (1-Ethylpropyl)-(2-phenylquinazolino-4-yl)-amine] | strong (“strong” means that the degree of phosphorylation of threonine-172 increased by 3 times or more) | 2.4 | 2.2 | –
15 | CC(c1ccccc1)c1nc(NCc2ccc3c(c2)OCO3)c2ccccc2n1 (centres unmarked) [Compound 374, Benzo[1,3]dioxol-5-ylmethyl-[2-(1-phenylethyl)-quinazolino-4-yl]-amine] | – | 1.1 | 1.9 | –
16 | CC(Nc1nc(C(Cl)(Cl)Cl)nc2ccccc12)c1ccccc1 (centres unmarked) [Compound 5, (1-Phenylethyl)-(2-trichloromethylquinazolino-4-yl)-amine] | – | 0.9 | – | 4.7^a
17 | OCCOCCNc1nc(-c2ccccc2)nc2ccccc12 [Compound 1, 2-[2-(2-Phenylquinazolino-4-ylamino)-ethoxy]-ethanol] | – | 1.7 | – | 6.0^a
18 | CCOc1cc2ncnc(NCc3cccc4ccccc34)c2cc1OCC [Compound 14, (6,7-Diethoxyquinazolino-4-yl)-naphthaleno-1-ylmethylamine] | – | 1.2 | – | 3.6^a
19 | COc1ccc(CNc2nc(Cc3ccccc3)nc3ccccc23)c(OC)c1 [Compound 272, (2-Benzylquinazolino-4-yl)-(2,4-dimethoxybenzyl)-amine] | – | 0.4 | 3.4 | –
20 | c1ccc(CCNc2nc(-c3ccccn3)nc3ccccc23)cc1 [Compound 227, Phenethyl-(2-pyridino-2-ylquinazolino-4-yl)-amine] | strong (“strong” means that the degree of phosphorylation of threonine-172 increased by 3 times or more) | 1.6 | 4.9 | –
21 | Fc1ccc(F)c(CNc2nc(-c3ccccc3)nc3ccccc23)c1 [Compound 135, (2,5-Difluorobenzyl)-(2-phenylquinazolino-4-yl)-amine] | strong (“strong” means that the degree of phosphorylation of threonine-172 increased by 3 times or more) | 2.6 | 2.0 | –
22 | COc1cc(CNc2nc(-c3ccco3)nc3ccccc23)cc(OC)c1OC [Compound 345, (2-Furano-2-ylquinazolino-4-yl)-(3,4,5-trimethoxybenzyl)-amine] | – | 1.3 | 1.1 | –
23 | CC(C)c1nc(NCc2ccccc2)c2ccccc2n1 [Compound 175, Benzyl-(2-isopropylquinazolino-4-yl)-amine] | strong (“strong” means that the degree of phosphorylation of threonine-172 increased by 3 times or more) | 2.7 | 4.8 | –
24 | CC(C)CCNc1nc(-c2ccccc2)nc2ccccc12 [Compound 130, (3-Methylbutyl)-(2-phenylquinazolino-4-yl)-amine] | strong (“strong” means that the degree of phosphorylation of threonine-172 increased by 3 times or more) | 2.2 | 1.8 | –
25 | COc1ccc(OC)c(CNc2nc(C3CC3)nc3ccccc23)c1 [Compound 391, (2-Cyclopropylquinazolino-4-yl)-(2,5-dimethoxybenzyl)-amine] | – | 1.2 | 7.1 | –
26 | COc1cccc(CNc2nc(C(OC)c3ccccc3)nc3ccccc23)c1OC (centres unmarked) [Compound 364, (2,3-Dimethoxybenzyl)-[2-(methoxyphenylmethyl)-quinazolino-4-yl]-amine] | – | 1.3 | 1.2 | –
27 | Cc1ccc(CCNc2nc(-c3ccccc3)nc3ccccc23)cc1 [Compound 119, (2-Phenylquinazolino-4-yl)-(2-p-tollylethyl)-amine] | strong (“strong” means that the degree of phosphorylation of threonine-172 increased by 3 times or more) | 2.6 | 2.3 | –
